No end group written: not given here.
How the values were obtained:
[1] = test system: human C1q; assay: Reverse ELISA: inhibition of PAP immune complex binding to C1q coated plates; details: for OD 405 nm: PAP pre-incubated 1 h with peptide or C1q, 30 min on C1q coated plates, lower OD = more inhibition, positive control 2.355; for inhibition of C1q binding, ranking in words: among the peptides of Table 1
From the text: (§1) For this reason, a “reverse ELISA” technique was used to assess binding of the Fc region to ligands that bind to immune complexed IgG Fc. In a reverse ELISA, the enzyme (e.g., HRP) is not covalently conjugated to the Fc portion of the secondary antibody. Rather, a preformed immune complex of peroxidase-rabbit (or mouse) anti-peroxidase IgG (“PAP” complex) is used. […] In these experiments, an Fc CH2-CH3 cleft binding ligand (e.g., purified human C1q) was bound to microwell plates. In the absence of competitor, PAP complexes bound to the immobilized ligand and the reaction between HRP and its substrate produced a signal. This signal was reduced by polypeptides and compounds provided herein that inhibited PAP binding to the immobilized ligand.
PAP complexes were formed mixing 2 μl of rabbit anti-peroxidase (Sigma Chemicals, St. Louis, Mo.) with 50 μl of peroxidase (Sigma-Aldrich, St. Louis, Mo.) in 1 ml distilled water. PAP (100 μl) were pre-incubated with 100 μl of peptide for one hour, 100 μl were pre-incubated with 100 μl of peptide or human C1q (Quidel Corp., San Diego, Calif.) for one hour. The C1q/PAP and peptide/PAP mixtures (100 μl) were incubated with C1q coated plates for 30 minutes. After washing, plates were incubated with ATBS (Quidel Corp.) for 15 minutes and read at 405 nm.

[2] = test system: FcγIIa; assay: Reverse ELISA: inhibition of PAP immune complex binding to FcγIIa coated plates; details: PAP pre-incubated 1 h with peptide, 1 h on FcγIIa coated plates; lower = more inhibition; positive control 1.599
From the text: as §1
(§2) Once the reverse ELISA protocol was established using the C1q assay, the assay was redesigned using FcγIIa, FcγIIb, and FcγIII in place of C1q. Highly purified FcγIIa, FcγIIb and FcγIII were immunoabsorbed onto plastic microwells. After optimizing the FcγR reverse ELISA system, simple competitive inhibition experiments using polypeptides provided herein were conducted to investigate their ability to inhibit binding of immune complexes to purified FcγR.
(§3) Falcon microtiter plates were coated with 1:10 dilutions of highly purified FcγIIa, FcγIIb and FcγIII and incubated for 24 hours. The plates were washed and then blocked with 5×BSA blocking solution (Alpha Diagnostic International, San Antonio, Tex.) for 24 hours. PAP immune complexes were formed as described above. PAP (100 μl) were pre-incubated with 100 μl of peptide for one hour. PAP/peptide mixtures were added to the FcγR coated plates and incubated for one hour. After washing, plates were incubated with ABTS substrate for 15 minutes and read at 405 nm.

[3] = test system: FcγIIb; assay: Reverse ELISA: inhibition of PAP immune complex binding to FcγIIb coated plates; details: PAP pre-incubated 1 h with peptide, 1 h on FcγIIb coated plates; lower = more inhibition; positive control 1.394
From the text: as §1, §2, §3

[4] = test system: FcγIII; assay: Reverse ELISA: inhibition of PAP immune complex binding to FcγIII coated plates; details: PAP pre-incubated 1 h with peptide, 1 h on FcγIII coated plates; lower = more inhibition; positive control 1.588
From the text: as §1, §2, §3

[5] = test system: human wt α-synuclein; assay: Reverse ELISA: inhibition of immune complexed IgG (PAP) binding to wt α-synuclein; details: for Wt α-synuclein (read at 405 nm): PAP pre-incubated 1 h with peptide
Procedure: PAP complexes were formed mixing 2 μl of rabbit anti-peroxidase (Sigma) with 50 μl of peroxidase (Sigma) in 1 ml distilled water. PAP (100 μl) were pre-incubated with 100 μl of peptide for one hour. Control PAP (200 μl) also was incubated for one hour. 100 μl of either PAP or PAP/peptide was added to Falcon microtiter plates that had been coated for 24 or 48 hours with 167 μg/ml human wt α-synuclein (Sigma-Aldrich), and the plates were incubated for 60 minutes. After washing, plates were incubated with ATBS for 30 minutes and then read at 405 nm.

[6] = test system: FcR; assay: FcγR reverse ELISA, overall statement on FcR binding to PAP; details: among the peptides of Table 2
Procedure: as §2, §3

[7] = molecular target: IgG Fc (Homo sapiens, UniProt P01857); assay: Alanine substitution effect on binding of SEQ ID NO:16 to IgG Fc; details: alanine substitution of SEQ ID NO:16 Val-13 or Trp-14
From the text: The indole ring of Trp-14 in SEQ ID NO:16 has a hydrophobic interaction with IgG Fc His-435. SEQ ID NO:16 also has hydrophobic packing with IgG Fc Met-252, Ile-253, Ser-254, His-435, and Tyr-436. Alanine substitution of IgG Fc Asn-434, His-435, or Tyr-436 disrupts binding (ΔΔG≧1.5 kcal/mol). Similarly, alanine substitution of SEQ ID NO:16 Val-13 or Trp-14 results in disruption of binding (ΔΔG≧2.0 kcal/mol).

[8] = molecular target: highly purified FcγIII; assay: reverse ELISA: PAP without competitor on FcγIII-coated plate
[9] = molecular target: highly purified FcγIIa; assay: reverse ELISA: PAP without competitor on FcγIIa-coated plate
[10] = molecular target: highly purified FcγIIb; assay: reverse ELISA: PAP without competitor on FcγIIb-coated plate
[11] = molecular target: human wt α-synuclein (Sigma-Aldrich) (human) (UniProt P37840); assay: reverse ELISA: PAP without competitor on α-synuclein-coated plate (taken as the 24 h coating)
[12] = molecular target: preformed immune complex of peroxidase-rabbit anti-peroxidase IgG (PAP complex) (rabbit; horseradish) (UniProt P00433); assay: reverse ELISA competition: PAP pre-incubated with peptide, then on FcγIII-coated plate (competitor: immobilized FcγIII)
[13] = molecular target: preformed immune complex of peroxidase-rabbit anti-peroxidase IgG (PAP complex) (rabbit; horseradish) (UniProt P00433); assay: reverse ELISA competition: PAP pre-incubated with peptide, then on FcγIIa-coated plate (competitor: immobilized FcγIIa)
[14] = molecular target: preformed immune complex of peroxidase-rabbit anti-peroxidase IgG (PAP complex) (rabbit; horseradish) (UniProt P00433); assay: reverse ELISA competition: PAP pre-incubated with peptide, then on FcγIIb-coated plate (competitor: immobilized FcγIIb)
[15] = molecular target: preformed immune complex of peroxidase-rabbit anti-peroxidase IgG (PAP complex) (rabbit; horseradish) (UniProt P00433); assay: reverse ELISA competition: PAP pre-incubated with peptide, then on C1q-coated plate; signal is PAP bound to C1q (competitor: immobilized human C1q)
[16] = molecular target: preformed immune complex of peroxidase-rabbit anti-peroxidase IgG (PAP complex) (rabbit; horseradish) (UniProt P00433); assay: reverse ELISA competition: PAP pre-incubated with peptide, then on plate coated 24 h with human wt α-synuclein (competitor: immobilized α-synuclein)
[17] = molecular target: preformed immune complex of peroxidase-rabbit anti-peroxidase IgG (PAP complex) (rabbit; horseradish) (UniProt P00433); assay: reverse ELISA competition: PAP pre-incubated with peptide, then on plate coated 48 h with human wt α-synuclein (competitor: immobilized α-synuclein)
[18] = plates coated 24 h with 167 μg/ml α-synuclein, positive control 1.433
[19] = plates coated 48 h with 167 μg/ml α-synuclein, positive control […]

preformed immune complex of peroxidase-rabbit anti-peroxidase IgG (PAP complex) (rabbit; horseradish), sequence (P00433 31-338, one chain of several): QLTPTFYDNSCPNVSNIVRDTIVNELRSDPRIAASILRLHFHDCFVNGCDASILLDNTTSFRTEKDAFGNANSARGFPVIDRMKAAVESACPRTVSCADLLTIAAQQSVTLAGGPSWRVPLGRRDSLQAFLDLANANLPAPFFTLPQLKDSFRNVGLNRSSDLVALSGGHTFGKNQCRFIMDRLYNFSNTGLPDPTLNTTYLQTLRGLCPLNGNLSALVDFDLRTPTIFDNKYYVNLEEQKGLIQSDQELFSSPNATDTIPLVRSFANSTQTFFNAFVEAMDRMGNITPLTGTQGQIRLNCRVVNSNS
preformed immune complex of peroxidase-rabbit anti-peroxidase IgG (PAP complex), sequence (P00433 31-338, one chain of several): as above
highly purified FcγIIa, sequence (P12318 34-317): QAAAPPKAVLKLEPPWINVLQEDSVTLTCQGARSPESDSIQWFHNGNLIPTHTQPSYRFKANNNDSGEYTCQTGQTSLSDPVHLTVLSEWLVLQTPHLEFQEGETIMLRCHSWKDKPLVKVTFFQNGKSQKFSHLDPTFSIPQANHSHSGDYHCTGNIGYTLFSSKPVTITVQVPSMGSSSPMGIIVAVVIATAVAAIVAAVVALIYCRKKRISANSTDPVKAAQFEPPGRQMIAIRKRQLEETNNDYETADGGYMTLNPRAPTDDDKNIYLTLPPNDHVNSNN

OD 405 nm [12] [OD 405 nm]	OD 405 nm [13] [OD 405 nm]	OD 405 nm [14] [OD 405 nm]	OD 405 nm [15] [OD 405 nm]	Molecule	OD 405 nm [1]	FcγIIa (read at 405 nm) [2]	FcγIIb (read at 405 nm) [3]	FcγIII (read at 405 nm) [4]	further results
0.53	0.658	0.562	1.15	APPCAWHLGELVWCT (not fully specified; cysteine pairing not given here) [… (SEQ ID NO:13)]	–	–	–	–	–
0.709	0.956	0.768	0.567	APPCARHLGELVWCT (not fully specified; cysteine pairing not given here) [… (SEQ ID NO:14)]	–	–	–	–	–
0.81	0.66	0.51	0.859	DCAFHLGELVWCT [… (SEQ ID NO:3)]	–	–	–	–	–

Continued, molecule first:

Molecule	OD 405 nm [12] [OD 405 nm]	OD 405 nm [13] [OD 405 nm]	OD 405 nm [14] [OD 405 nm]	OD 405 nm [15] [OD 405 nm]	OD 405 nm [1]	FcγIIa (read at 405 nm) [2]	FcγIIb (read at 405 nm) [3]	FcγIII (read at 405 nm) [4]	further results
APPCAFHLGELVWCT (not fully specified; cysteine pairing not given here)	–	–	–	–	0.983	0.605	0.380	0.880	–
APPCARHLGELVWCT	–	–	–	–	0.567	0.956	0.768	0.709	inhibition of C1q binding, ranking in words [1]: next best result
APPCAWHLGELVWCT	–	–	–	–	1.148	0.658	0.562	0.530	–
APPDCAWHLGELVWCT	–	–	–	–	0.389	0.509	0.496	0.670	inhibition of C1q binding, ranking in words [1]: greatest inhibition of C1q binding, almost equaling C1q itself; inhibition of α-synuclein binding to PAP, ranking in words ([5]; among the peptides of Table 3): greatest inhibition of α-synuclein binding to PAP; Wt α-synuclein (read at 405 nm) [5, 18]: 0.088; Wt α-synuclein (read at 405 nm) [5, 19]: 0.136; inhibition of FcR binding to PAP, ranking in words [6]: greatest inhibition of FcR binding to PAP; ΔΔG, disruption of binding [7]: ≥ 2.0 kcal/mol
DCAFHLGELVWCT	–	–	–	–	0.859	0.660	0.510	0.810	–
DCAWHLGELVWCT	–	–	–	–	1.100	0.561	0.532	0.741	Wt α-synuclein (read at 405 nm) [5, 18]: 0.111; Wt α-synuclein (read at 405 nm) [5, 19]: 0.152
preformed immune complex of peroxidase-rabbit anti-peroxidase IgG (PAP complex) (from UniProt P00433 31-338) (antibody)	–	–	–	–	–	–	–	–	OD 405 nm [8]: 1.59 OD 405 nm; OD 405 nm [9]: 1.6 OD 405 nm; OD 405 nm [10]: 1.39 OD 405 nm; OD 405 nm [11]: 1.43 OD 405 nm
APPCAFHLGELVWCT (not fully specified; cysteine pairing not given here) [… (SEQ ID NO:15)]	0.88	0.605	0.38	0.983	–	–	–	–	–
APPDCAWHLGELVWCT [… (SEQ ID NO:16)]	0.67	0.509	0.496	0.389	–	–	–	–	OD 405 nm [16]: 0.088 OD 405 nm; OD 405 nm [17]: 0.136 OD 405 nm

Reference: patent publication US20080200392A1, “Methods for Treating Parkinson's Disease” (priority 2005, published 2008)
